Laboratory results published in ChEMBL document CHEMBL1201862, “PubChem BioAssay data set” (2004).
Calls of active or inactive are those of the source.

Key:
[1] = biological target: G-protein coupled receptor 55 (Homo sapiens, UniProt Q9Y2T6); assay: GPR55 antagonists blocking LPI-driven arrestin recruitment, primary screen, imaging, U2OS, beta-arrestin-GFP, LPI agonist (AID 2013); type: functional;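 further: antagonist potency measured as reduced agonist-driven arrestin aggregation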
[2] = cells; type: functional, cell-based
[3] = cytotoxicity in HPDE-C7 cells, cell-based, fluorescence, HTS (AID 430); type: functional; conditions: Homo sapiens
[4] = cytotoxicity in KRAS-transformed pancreatic duct cells, primary screen, cell-based, fluorescence, HTS (AID 431); type: functional; conditions: Homo sapiens;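 further: cell line used: HPDE-C7K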
[5] = cells; type: functional, cell-based; remark: listed apart in the source
[6] = biological target: T1, Oxysterols receptor LXR-beta (Homo sapiens, UniProt P55055); type: functional, cell-based;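 further: agonist activity at LXR measured by a cell-based luminescence readout across a dose range, run as a counterscreen for daf-12 agonists; HEK293 cells with Gal4-LXR fusion and GAL4-driven luciferase reporter; potency for activation of Gal4-LXR reporter so compounds are agonists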
T1 sequence (P55055 whole entry): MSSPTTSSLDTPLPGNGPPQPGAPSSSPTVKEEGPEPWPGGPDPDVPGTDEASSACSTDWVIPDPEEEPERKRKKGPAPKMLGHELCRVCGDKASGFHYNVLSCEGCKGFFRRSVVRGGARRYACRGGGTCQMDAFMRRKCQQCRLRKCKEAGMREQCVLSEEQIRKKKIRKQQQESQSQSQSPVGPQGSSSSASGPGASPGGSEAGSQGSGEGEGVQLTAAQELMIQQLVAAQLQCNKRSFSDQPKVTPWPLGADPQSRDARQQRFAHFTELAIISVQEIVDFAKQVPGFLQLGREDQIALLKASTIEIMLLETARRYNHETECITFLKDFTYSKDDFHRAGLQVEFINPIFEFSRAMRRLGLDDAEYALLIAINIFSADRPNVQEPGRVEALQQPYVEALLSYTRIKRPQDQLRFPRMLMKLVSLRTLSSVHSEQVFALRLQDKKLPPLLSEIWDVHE

[7] = Luminescence Cell-Based Dose Retest to Confirm Inhibitors of Cancer Stem Cells. [Related pubchem assays (depositor defined):AID2717, AID2721]; type: functional; conditions: Homo sapiens
[8] = ZM109 Env clade C HIV-1 fusion inhibitors, dose response, HeLa effector, CEM target cells, luciferase, cherry-pick (AID 652058); type: functional, cell-based
[9] = CEM21 lymphoblast cell cytotoxicity, dose response, cytotoxicity control for viral fusion inhibitor project, CellTiter-Glo luminescence, cherry-picked (AID 652042); type: functional, cell-based;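 further: potency for signal decrease meaning cytotoxicity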
[10] = inhibitors of HIV Env-driven cell fusion, dose response, cherry-pick (AID 652057); type: functional, cell-based
[11] = biological target: T2, Streptokinase A (Streptococcus pyogenes serotype M1, UniProt P10520); assay: S. pyogenes streptokinase expression inhibitors, potency, dose response, plasminogen activation absorbance, OD405 (AID 1914); type: functional, Streptococcus pyogenes M1 GAS;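 further: secreted streptokinase activity via plasminogen activation per viability signal from cell pellet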
T2 sequence (P10520 whole entry): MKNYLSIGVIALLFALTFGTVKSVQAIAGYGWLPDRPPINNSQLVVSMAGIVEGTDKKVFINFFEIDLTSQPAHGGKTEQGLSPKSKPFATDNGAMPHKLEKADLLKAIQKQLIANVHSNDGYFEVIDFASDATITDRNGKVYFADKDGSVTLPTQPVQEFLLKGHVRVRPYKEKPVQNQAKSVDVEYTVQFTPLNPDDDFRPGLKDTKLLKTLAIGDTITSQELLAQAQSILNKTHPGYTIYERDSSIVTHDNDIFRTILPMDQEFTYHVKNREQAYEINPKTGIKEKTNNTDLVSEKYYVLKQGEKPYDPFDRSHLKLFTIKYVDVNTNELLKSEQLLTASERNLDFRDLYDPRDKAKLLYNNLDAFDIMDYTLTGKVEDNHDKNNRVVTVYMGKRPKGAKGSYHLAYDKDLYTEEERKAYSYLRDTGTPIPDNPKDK

[12] = tested on: Streptococcus; assay: Group A Streptococcus viability loss, dose response, counter-screen for streptokinase expression inhibitor project, luminescence, BacTiterGlo (AID 1915); type: functional, organism-based;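 further: potency for reduction of bacterial viability or growth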
[13] = tested on: Streptococcus sp. 'group A'; assay: growth inhibition of control SK(-) GAS strain, dose response, counter-screen for streptokinase expression inhibitor project, luminescence, kanamycin, BacTiterGlo, confirmation (AID 1900); type: functional, organism-based
[14] = off-target signal loss in HeLa-CEM21 co-culture – HeLa F-luc CTL cells, cherry-picked, counter-screen for HIV-1 Env fusion inhibitor project, dose response (AID 652040); type: functional, cell-based;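 further: potency for signal decrease marking cytotoxic or nonspecific inhibition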
[15] = inhibitors of clade B AD8 Env fusion, dose response, cell-based, cherry-pick (AID 652062); type: functional;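 further: luciferase signal from cell-cell fusion driven by HIV-1 clade B AD8 Env; potency is for inhibitors of fusion seen as a drop in luminescence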
[16] = CellTiter-Glo luminescent dose response of DLD-1 viability loss (AID 1117352); type: functional
[17] = SNU-C1 cell viability reduction, dose response, CellTiter-Glo luminescence (AID 1117323); type: functional, cell-based
[18] = Concentration-dependent survival of SW480 colon cancer line, luminescence detection with CellTiter-Glo, half-maximal inhibitory concentration (AID 1117338); type: functional
[19] = HCT116 cell viability decrease, GSK3B pretreatment – CellTiter-Glo, IC50, dose response (AID 1117339); type: functional; conditions: HCT-116
[20] = cytotoxicity toward HCT116 cells – cell-based, CellTiter-Glo luminescence, IC50, dose response (AID 1117332); type: functional; conditions: HCT-116
[21] = cytotoxicity toward Colo320 cells – cell-based, CellTiter-Glo luminescence, IC50, dose response (AID 1117334); type: functional; conditions: COLO 320
[22] = cytotoxicity toward HT-29 cells – cell-based, CellTiter-Glo luminescence, IC50, dose response (AID 1117330); type: functional
[23] = RKO cell viability reduction, dose response, CellTiter-Glo luminescence (AID 1117322); type: functional

Sequence of G-protein coupled receptor 55 (Q9Y2T6 whole entry): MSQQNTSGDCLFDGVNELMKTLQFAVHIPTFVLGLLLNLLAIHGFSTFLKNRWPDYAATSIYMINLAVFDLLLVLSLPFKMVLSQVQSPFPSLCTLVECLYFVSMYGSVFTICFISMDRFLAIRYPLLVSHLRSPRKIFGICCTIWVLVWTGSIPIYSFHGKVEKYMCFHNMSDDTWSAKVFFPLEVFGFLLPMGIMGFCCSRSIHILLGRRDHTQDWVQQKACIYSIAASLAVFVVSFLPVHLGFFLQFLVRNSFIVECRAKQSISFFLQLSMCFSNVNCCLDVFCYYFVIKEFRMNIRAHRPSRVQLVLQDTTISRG

COc1ccc(C2c3ccc(O)cc3Oc3ncn(CC(C)C)c(=N)c32)cc1 (stereo not drawn)
IC50 [1]: 2.27 µM (active)

Cc1sc2ncnc(Sc3nnnn3-c3ccc(Cl)cc3)c2c1C
EC50 [2]: > 350 µM (not active) | EC50 [3]: 4.61 µM (active) | EC50 [4]: 5.19 µM (active) | EC50 [5]: > 350 µM (not active)

CCc1ccc(C2CC(c3ccco3)=NN2S(C)(=O)=O)cc1 (stereo not drawn)
EC50 [6]: > 67.5 µM (inactive)

CN1CC(c2ccccc2)C2(SC(=S)N(Cc3ccco3)C2=O)C12C(=O)Nc1ccccc12 (stereo not drawn)
AC50 [7]: 4.4 µM (active) | AC50 [8]: 18.4 µM (active) | AC50 [9]: 20.3 µM (active) | AC50 [10]: 17.6 µM (active)

CCCOC(=O)c1ccc(Oc2c(C)n[nH]c2-c2ccc(OC)cc2O)cc1
EC50 [11]: > 150 µM (not active) | EC50 [12]: 28.5 µM (active) | EC50 [3]: 12.2 µM (active) | EC50 [4]: 6.36 µM (active) | EC50 [13]: 14.1 µM (active)

c1ccc(Cc2cnc(N3CCN(Cc4csc5ccccc45)CC3)nc2)cc1
AC50 [9]: 47.5 µM (active) | AC50 [10]: 2.86 µM (active) | AC50 [14]: 65 µM (active) | AC50 [15]: 2.98 µM (active)

C=CC(C)(O)CCC=C(C)CCC=C(C)C (stereo not drawn)
IC50 [16]: > 20 µM (inactive) | IC50 [17]: > 20 µM (inactive) | IC50 [18]: > 20 µM (inactive) | IC50 [19]: > 20 µM (inactive) | IC50 [20]: > 20 µM (inactive) | IC50 [21]: 10.3 µM (inactive) | IC50 [22]: > 20 µM (inactive) | IC50 [23]: > 20 µM (inactive)

CC/C(=N\NC(=O)c1ccoc1C)c1ccc(C)o1
EC50 [6]: > 67.5 µM (inactive)
